{"source": "patent US11560395B2", "about": "“Azithromycin derivatives containing a phosphonium ion as anticancer agents” (Rising Tide Foundation, priority 2017, dated 2023)", "system": "MDA-231 cancer cells", "experiment": "Inhibition of proliferation assay, cell confluence (IncuCyte live cell imaging)", "assay_type": "cell-based", "settings": "MDA-231 cells, concentration 10 uM; relative confluence normalised to time zero, images every 3 h over 4-5 d", "description": "Inhibition of Proliferation Assay Cell Confluence The confluence value is a surrogate for cell proliferation and growth. The value is expressed as a percent confluence, which represents the fraction of culture dish-surface that is occupied by cells. As the number of cells in the dish increases over time due to proliferation, so will their coverage of that surface increase. Expansion of the cell population on the cell culture-dish surface and confluence have mostly a linear relationship until the cells on the plate surface begin to reach saturation or maximum density. Confluence is determined based on image analysis. Image based software can identify objects in the image field base on changes to pixel density in a grey scale image. The software can then assign a mask to those pixels within the object. Objects can be ‘gated’ out based on size and shape. To determine cell confluence, images of cells are first masked as objects. The surface area of the image that is masked is measured and compared to the total surface area of the culture dish surface to obtain a percent confluence. MDA-231 cancer cells were obtained from ATCC. Cells were cultured in Dulbecco's Modified Eagle Medium (DMEM) supplemented with 10% Fetal Bovine Serum (FBS), 2 mM Glutamax, 1 mM Non Essential Amino Acid (NEAA) solution and 1 mM sodium pyruvate. Compounds were dissolved in DMSO at 10 mM and diluted in cellular medium and tested at 10 μM (micromolar). Final DMSO concentrations were <0.1%. Images were acquired with an IncuCyte Live Cell Imaging microscopy (Essen Bioscience) at every 3 h under cell culture conditions with 10× objective over 4-5 d. Cell confluence was calculated from one field of view per well using the IncuCyte in-built algorithm. Relative confluence values were obtained by normalising each value to the time zero value in each sample."}
{"smiles": "CC[C@H]1OC(=O)[C@H](C)[C@@H](O[C@H]2C[C@@](C)(OC)[C@@H](O)[C@H](C)O2)[C@H](C)[C@@H](O[C@@H]2O[C@H](C)C[C@H](N(C)C)[C@H]2O)[C@](C)(O)C[C@@H](C)CN(C(=O)CCCCCCCCCC[P+](c2ccccc2)(c2ccccc2)c2ccccc2)[C@H](C)[C@@H](O)[C@]1(C)O.[Cl-]", "note": "[Example 25, {11-[(2R,3S,4R,5R,8R,10R,11R,12S,13S,14R)-11-{[(2S,3R,4S,6R)-4-(dimethylamino)-3-hydroxy-6-methyloxan-2-yl]oxy}-2-ethyl-3,4,10-trihydroxy-13-{[(2R,4R,5S,6S)-5-hydroxy-4-methoxy-4,6-dimethyloxan-2-yl]oxy}-3,5,8,10,12,14-hexamethyl-15-oxo-1-oxa-6-azacyclopentadecan-6-yl]-11-oxoundecyl}triphenylphosphonium chloride]", "values": [{"measurement": "% Confluence", "value": 4.4, "unit": "%"}]}
